Laboratory results from patent US20230263822A1, “MODULATION OF FACTOR 11 EXPRESSION” (Ionis Pharmaceuticals, Inc., priority 2008, published 2023).

Test: Hematology assays in cynomolgus monkeys (Example 45)
Format: in vivo
Conditions: for MCH / MCHC / MCV / RBC count / WBC count / hematocrit / hemoglobin: escalating dose regimen
Description: Groups, each consisting of two male and three female monkeys, were injected subcutaneously with ISIS 416838, ISIS 416850, ISIS 416858, ISIS 416864, or ISIS 417002 in escalating doses. Antisense oligonucleotide was administered to the monkeys at 5 mg/kg three times per a week for week 1; 5 mg/kg twice per week for weeks 2 and 3; 10 mg/kg three times per week for week 4; 10 mg/kg twice per week for weeks 5 and 6; 25 mg/kg three times per week for week 7; and 25 mg/kg twice per week for weeks 8, 9, 10, 11, and 12. One control group, consisting of two male and three female monkeys, was injected subcutaneously with PBS according to the same dosing regimen. An additional experimental group, consisting of two male and three female monkeys, was injected subcutaneously with ISIS 416850 in a chronic, lower dose regimen. Antisense oligonucleotide was administered to the monkeys at 5 mg/kg three times per week for week 1; 5 mg/kg twice per week for week 2 and 3; 10 mg/kg three times per week for week 4; and 10 mg/kg twice per week for weeks 5 to 12. Body weights were measured weekly. Blood samples were collected 14 days and 5 days before the start of treatment and subsequently once per week for Factor 11 protein activity analysis in plasma, fibrinogen measurement, PT and aPTT measurements, bleeding times, and measurement of various hematologic factors. On day 85, the monkeys were euthanized by exsanguination while under deep anesthesia, and organs harvested for further analysis.
The ISIS oligonucleotide, ISIS 416850, given with the chronic dose regimen is distinguished from the other oligonucleotides with an asterisk (*).

## ISIS 416838: MOE gapmer, nucleobases 1018 to 1042 of SEQ ID NO: 1 (Table 6) (antisense GCAACCGGGATGATGAGTGC; MOE gapmer, wing and gap sizes not given here)
Day 64
  MCH: 23 pg
Day 71
  MCH: 23 pg
Day 78
  MCH: 23 pg
Day 85
  MCH: 23 pg
Day 8
  basophils: 0.2%
  eosinophils: 0.4%
  lymphocytes: 54%
  monocytes: 2.5%
  neutrophils: 42%
  platelet count: 387000 µL⁻¹
  reticulocytes: 1.2%
  MCH: 23 pg
  MCHC: 30 g/dL
  MCV: 77 fL
  RBC count: 5.7e+06 µL⁻¹
  WBC count: 10000 µL⁻¹
  hematocrit: 43%
  hemoglobin: 12.9 g/dL
Day 15
  basophils: 0.3%
  eosinophils: 0.3%
  lymphocytes: 53%
  monocytes: 2.4%
  neutrophils: 43%
  platelet count: 387000 µL⁻¹
  reticulocytes: 1.2%
  MCH: 23 pg
  MCHC: 31 g/dL
  MCV: 75 fL
  RBC count: 5.6e+06 µL⁻¹
  WBC count: 10000 µL⁻¹
  hematocrit: 42%
  hemoglobin: 12.9 g/dL
Day 22
  basophils: 0.2%
  eosinophils: 0.5%
  lymphocytes: 59%
  monocytes: 2.9%
  neutrophils: 37%
  platelet count: 319000 µL⁻¹
  reticulocytes: 1.2%
  MCH: 23 pg
  MCHC: 29 g/dL
  MCV: 80 fL
  RBC count: 5.4e+06 µL⁻¹
  WBC count: 11000 µL⁻¹
  hematocrit: 43%
  hemoglobin: 12.5 g/dL
Day 29
  basophils: 0.2%
  eosinophils: 0.3%
  lymphocytes: 59%
  monocytes: 3.2%
  neutrophils: 36%
  platelet count: 337000 µL⁻¹
  reticulocytes: 1.6%
  MCH: 23 pg
  MCHC: 29 g/dL
  MCV: 81 fL
  RBC count: 5.3e+06 µL⁻¹
  WBC count: 11000 µL⁻¹
  hematocrit: 43%
  hemoglobin: 12.4 g/dL
Day 36
  basophils: 0.4%
  eosinophils: 0.5%
  lymphocytes: 57%
  monocytes: 2.5%
  neutrophils: 39%
  platelet count: 370000 µL⁻¹
  reticulocytes: 1.6%
  MCH: 23 pg
  MCHC: 30 g/dL
  MCV: 78 fL
  RBC count: 5.5e+06 µL⁻¹
  WBC count: 10000 µL⁻¹
  hematocrit: 43%
  hemoglobin: 12.8 g/dL
Day 43
  basophils: 0.4%
  eosinophils: 0.6%
  lymphocytes: 65%
  monocytes: 3.3%
  neutrophils: 30%
  platelet count: 365000 µL⁻¹
  reticulocytes: 1.2%
  MCH: 23 pg
  MCHC: 30 g/dL
  MCV: 78 fL
  RBC count: 5.6e+06 µL⁻¹
  WBC count: 10000 µL⁻¹
  hematocrit: 43%
  hemoglobin: 12.7 g/dL
Day 50
  basophils: 0.3%
  eosinophils: 0.8%
  lymphocytes: 64%
  monocytes: 3.2%
  neutrophils: 31%
  platelet count: 372000 µL⁻¹
  reticulocytes: 1.6%
  MCH: 23 pg
  MCHC: 28 g/dL
  MCV: 80 fL
  RBC count: 5.5e+06 µL⁻¹
  WBC count: 11000 µL⁻¹
  hematocrit: 44%
  hemoglobin: 12.3 g/dL
Day 57
  basophils: 0.3%
  eosinophils: 0.6%
  lymphocytes: 63%
  monocytes: 3.2%
  neutrophils: 32%
  platelet count: 371000 µL⁻¹
  reticulocytes: 1.5%
  MCH: 23 pg
  MCHC: 29 g/dL
  MCV: 79 fL
  RBC count: 5.5e+06 µL⁻¹
  WBC count: 12000 µL⁻¹
  hematocrit: 43%
  hemoglobin: 12.6 g/dL
Day 64
  basophils: 0.4%
  eosinophils: 0.7%
  lymphocytes: 64%
  monocytes: 3.5%
  neutrophils: 30%
  platelet count: 358000 µL⁻¹
  reticulocytes: 1.3%
  MCHC: 29 g/dL
  MCV: 79 fL
  RBC count: 5.6e+06 µL⁻¹
  WBC count: 13000 µL⁻¹
  hematocrit: 44%
  hemoglobin: 12.6 g/dL
Day 71
  basophils: 0.5%
  eosinophils: 0.8%
  lymphocytes: 65%
  monocytes: 4.3%
  neutrophils: 28%
  platelet count: 365000 µL⁻¹
  reticulocytes: 1.3%
  MCHC: 29 g/dL
  MCV: 80 fL
  RBC count: 5.5e+06 µL⁻¹
  WBC count: 15000 µL⁻¹
  hematocrit: 44%
  hemoglobin: 12.7 g/dL
Day 78
  basophils: 0.4%
  eosinophils: 0.9%
  lymphocytes: 60%
  monocytes: 3.6%
  neutrophils: 35%
  platelet count: 348000 µL⁻¹
  reticulocytes: 1.4%
  MCHC: 30 g/dL
  MCV: 76 fL
  RBC count: 5.4e+06 µL⁻¹
  WBC count: 11000 µL⁻¹
  hematocrit: 41%
  hemoglobin: 12.5 g/dL
Day 85
  basophils: 0.3%
  eosinophils: 1.5%
  lymphocytes: 72%
  monocytes: 3.7%
  neutrophils: 22%
  platelet count: 344000 µL⁻¹
  reticulocytes: 1.5%
  MCHC: 30 g/dL
  MCV: 77 fL
  RBC count: 5.5e+06 µL⁻¹
  WBC count: 12000 µL⁻¹
  hematocrit: 42%
  hemoglobin: 12.4 g/dL
Day −5
  basophils: 0.3%
  eosinophils: 0.6%
  lymphocytes: 59%
  monocytes: 3.6%
  neutrophils: 35%
  platelet count: 425000 µL⁻¹
  reticulocytes: 0.9%
  MCH: 23 pg
  MCHC: 31 g/dL
  MCV: 76 fL
  RBC count: 5.6e+06 µL⁻¹
  WBC count: 12000 µL⁻¹
  hematocrit: 42%
  hemoglobin: 13.1 g/dL
Day −14
  basophils: 0.2%
  eosinophils: 0.6%
  lymphocytes: 59%
  monocytes: 3.1%
  neutrophils: 36%
  platelet count: 377000 µL⁻¹
  reticulocytes: 1.0%
  MCH: 23 pg
  MCHC: 30 g/dL
  MCV: 77 fL
  RBC count: 5.6e+06 µL⁻¹
  WBC count: 12000 µL⁻¹
  hematocrit: 42%
  hemoglobin: 12.9 g/dL
